# Measurements taken from ChEMBL document CHEMBL5257024, “Synthesis of α,β-Unsaturated Carbonyl-Based Compounds, Oxime and Oxime Ether Analogs as Potential Anticancer Agents for Overcoming Cancer Multidrug Resistance by Modulation of Efflux Pumps in Tumor Cells” (J Med Chem, 2016).
# The source made the active and inactive calls. The calls are words filed in the database; no cut-off is given here.
# How the values were obtained:
# PANC-1 = assay: cells; conditions: Homo sapiens, PANC-1, 48 h
# Description: Antiproliferative activity against human PANC-1 cells assessed as inhibition of cell growth incubated for 48 hrs by propidium iodide staining based fluorometer assay
# HT-29 = assay: cells; conditions: Homo sapiens, HT-29, 48 h
# Description: Antiproliferative activity against human HT-29 cells assessed as inhibition of cell growth incubated for 48 hrs by propidium iodide staining based fluorometer assay
# L5178Y [1] = assay: Reversal of multidrug resistance in mouse L5178Y cells transfected with human MDR1 assessed as reversal of rhodamine 123 accumulation at 5 ug/ml incubated for 30 mins by flow cytometry; type: functional, cell-based; conditions: dose 5.0 µg/ml
# MIA PaCa-2 = assay: Antiproliferative activity against human MIA PaCa-2 cells assessed as inhibition of cell growth incubated for 48 hrs by propidium iodide staining based fluorometer assay; type: functional; conditions: MIA PaCa-2, 48 h
# PC-3 = assay: cells; conditions: Homo sapiens, PC-3, 48 h
# Description: Antiproliferative activity against human PC-3 cells assessed as inhibition of cell growth incubated for 48 hrs by propidium iodide staining based fluorometer assay
# NCI-H460 = assay: cells; conditions: Homo sapiens, NCI-H460, 48 h
# Description: Antiproliferative activity against human NCI-H460 cells assessed as inhibition of cell growth incubated for 48 hrs by propidium iodide staining based fluorometer assay
# A549 = assay: Antiproliferative activity against human A549 cells assessed as inhibition of cell growth incubated for 48 hrs by propidium iodide staining based fluorometer assay; type: functional; conditions: A549, 48 h
# Tubulin (Sus scrofa) = Tubulin (Sus scrofa) (UniProt P02554+P02550); assay: Inhibition of pig brain tubulin polymerization at 25 uM measured after 15 mins by fluorescence based turbidimetry; type: tissue-based
# [2] = Inhibition of full length mouse GST-tagged BRAF V600E mutant preincubated for 60 mins followed by addition of N-terminal His-tagged full length human MEK1 incubated for 25 mins in presence of ATP by ELISA assay
# [3] = molecular target: Epidermal growth factor receptor (Homo sapiens, UniProt P00533); assay: Inhibition of recombinant 6His-tagged EGFR cytoplasmic domain (645 to 1186 residues) (unknown origin) autophosphorylation expressed in baculovirus infected Sf9 insect cells preincubated for 10 mins followed by ATP and MgCl2 addition measured after 60 mins by DELFIA/time-resolved fluorometric analysis
# [4] = Cytotoxicity against human MCF-10A cells assessed as cell viability incubated for 96 hrs by MTT assay; type: toxicity, cell-based; set-up: concentration or dose not given beside the values; conditions: read-out: Activity
# L5178Y [5] = assay: Reversal of multidrug resistance in mouse L5178Y cells transfected with human MDR1 assessed as reversal of rhodamine 123 accumulation at 50 ug/ml incubated for 30 mins by flow cytometry; type: functional, cell-based; conditions: dose 50.0 µg/ml
# [6] = Toxicity in mouse L5178Y cells transfected with human MDR1 at 50 ug/ml after short period of incubation by tryptan blue assay; type: cell-based; conditions: dose 50 µg/ml
# Sus scrofa = species: Sus scrofa; assay: Induction of pig brain microtubule stabilization at 25 uM measured after 15 mins by fluorescence based turbidimetry; type: tissue-based
# MCF7 = assay: Antiproliferative activity against human MCF7 cells assessed as inhibition of cell growth incubated for 48 hrs by propidium iodide staining based fluorometer assay; type: functional; conditions: MCF7, 48 h
# Sequence of Epidermal growth factor receptor (P00533 whole entry, the tested form may be a part): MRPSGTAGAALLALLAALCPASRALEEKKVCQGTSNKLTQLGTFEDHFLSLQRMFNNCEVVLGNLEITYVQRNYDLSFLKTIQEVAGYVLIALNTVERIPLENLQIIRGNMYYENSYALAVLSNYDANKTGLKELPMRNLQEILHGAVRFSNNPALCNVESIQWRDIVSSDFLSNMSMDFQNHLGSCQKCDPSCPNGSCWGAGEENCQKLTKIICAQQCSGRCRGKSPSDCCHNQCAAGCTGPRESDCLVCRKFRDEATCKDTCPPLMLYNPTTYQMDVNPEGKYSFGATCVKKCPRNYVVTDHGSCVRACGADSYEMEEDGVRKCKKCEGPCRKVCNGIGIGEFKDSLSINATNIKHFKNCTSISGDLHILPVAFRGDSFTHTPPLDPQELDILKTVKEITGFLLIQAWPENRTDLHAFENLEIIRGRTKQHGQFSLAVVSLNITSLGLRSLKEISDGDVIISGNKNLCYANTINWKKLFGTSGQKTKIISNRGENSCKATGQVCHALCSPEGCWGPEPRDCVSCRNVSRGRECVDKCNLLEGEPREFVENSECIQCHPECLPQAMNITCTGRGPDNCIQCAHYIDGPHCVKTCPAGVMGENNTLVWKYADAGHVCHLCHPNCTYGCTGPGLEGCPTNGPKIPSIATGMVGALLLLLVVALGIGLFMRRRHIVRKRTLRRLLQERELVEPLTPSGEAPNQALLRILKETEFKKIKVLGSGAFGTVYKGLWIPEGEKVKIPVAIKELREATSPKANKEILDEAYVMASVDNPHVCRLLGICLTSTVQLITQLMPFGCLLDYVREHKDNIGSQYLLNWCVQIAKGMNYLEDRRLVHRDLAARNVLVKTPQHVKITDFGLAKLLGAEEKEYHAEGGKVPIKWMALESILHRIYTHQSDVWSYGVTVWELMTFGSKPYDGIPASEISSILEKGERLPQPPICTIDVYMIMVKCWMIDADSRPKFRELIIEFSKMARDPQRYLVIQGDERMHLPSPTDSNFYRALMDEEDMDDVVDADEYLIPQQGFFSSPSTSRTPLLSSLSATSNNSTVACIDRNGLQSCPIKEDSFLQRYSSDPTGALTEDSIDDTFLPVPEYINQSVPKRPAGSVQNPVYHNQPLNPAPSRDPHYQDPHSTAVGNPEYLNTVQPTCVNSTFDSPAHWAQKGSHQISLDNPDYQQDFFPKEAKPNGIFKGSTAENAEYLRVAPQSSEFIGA
# Sequence of Tubulin (Sus scrofa) (P02550 whole entry, looked up): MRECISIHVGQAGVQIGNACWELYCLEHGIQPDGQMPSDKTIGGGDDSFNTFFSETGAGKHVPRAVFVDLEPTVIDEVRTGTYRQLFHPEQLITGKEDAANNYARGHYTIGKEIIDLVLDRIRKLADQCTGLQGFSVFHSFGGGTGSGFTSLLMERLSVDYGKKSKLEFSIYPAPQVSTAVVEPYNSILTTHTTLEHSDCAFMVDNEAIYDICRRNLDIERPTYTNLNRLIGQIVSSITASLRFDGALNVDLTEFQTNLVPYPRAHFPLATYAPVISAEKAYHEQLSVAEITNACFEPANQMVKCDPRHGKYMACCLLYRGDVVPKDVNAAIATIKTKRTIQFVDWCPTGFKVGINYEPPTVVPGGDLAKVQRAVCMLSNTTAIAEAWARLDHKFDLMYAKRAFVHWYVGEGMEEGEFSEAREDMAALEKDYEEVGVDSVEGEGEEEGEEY
# Sequence of Tubulin (Sus scrofa) (P02554 whole entry, looked up): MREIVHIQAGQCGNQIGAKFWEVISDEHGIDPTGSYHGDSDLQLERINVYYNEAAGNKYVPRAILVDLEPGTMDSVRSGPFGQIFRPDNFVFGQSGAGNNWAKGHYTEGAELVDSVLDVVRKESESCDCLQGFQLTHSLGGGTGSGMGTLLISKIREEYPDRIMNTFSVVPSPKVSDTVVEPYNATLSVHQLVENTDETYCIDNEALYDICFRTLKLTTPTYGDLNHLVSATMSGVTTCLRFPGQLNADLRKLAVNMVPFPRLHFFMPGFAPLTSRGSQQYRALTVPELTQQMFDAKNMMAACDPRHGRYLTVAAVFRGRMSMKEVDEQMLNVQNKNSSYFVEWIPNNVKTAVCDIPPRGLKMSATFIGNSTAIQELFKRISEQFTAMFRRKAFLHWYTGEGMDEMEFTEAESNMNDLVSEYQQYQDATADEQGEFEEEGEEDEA
SMILES,IC50 (PANC-1),IC50 (HT-29),Activity (L5178Y [1]),IC50 (MIA PaCa-2),IC50 (PC-3),IC50 (NCI-H460),IC50 (A549),inhibition (Tubulin (Sus scrofa)),IC50 [2],IC50 [3],viability at 96 h [4],Activity (L5178Y [5]),Activity [6],Activity (Sus scrofa),IC50 (MCF7)
COc1cc(/C=C2\CCc3ccc([N+](=O)[O-])cc3\C2=N\O)c(Br)c(OC)c1OC,0.02 µM,0.03 µM,inactive,0.02 µM,0.02 µM,0.04 µM,0.02 µM,Active,1 µM,1.9 µM,96%,Active,Non-Toxic,inactive,0.09 µM
COc1ccc(OC)c2c1CCC(=C\c1cc(OC)c(OC)c(OC)c1Br)/C2=N\O,0.7 µM,0.6 µM,inactive,0.6 µM,0.7 µM,0.6 µM,0.4 µM,Active,1.8 µM,4.2 µM,89%,Active,Non-Toxic,inactive,0.5 µM
COc1ccc(/C=C2\CCc3ccc([N+](=O)[O-])cc3\C2=N\O)c(Cl)c1OC,0.09 µM,0.09 µM,inactive,0.09 µM,0.02 µM,0.08 µM,0.08 µM,Active,0.9 µM,2 µM,93%,Active,Non-Toxic,inactive,0.07 µM
COc1cc(/C=C2\CCc3ccc(F)cc3C2=O)c(Br)c(OC)c1OC,8.5 µM,9.6 µM,,8.9 µM,10.3 µM,8.9 µM,8.2 µM,,,,93%,,,,10.1 µM
COc1cc(/C=C2\CN(Cc3ccccc3)C/C(=C\c3cc(OC)c(OC)c(OC)c3Br)C2=O)c(Br)c(OC)c1OC,12.2 µM,12 µM,,11.9 µM,14.6 µM,12.3 µM,11.1 µM,,,,91%,,,,12.8 µM
COc1ccc2c(c1)CC/C(=C\c1cc(OC)c(OC)c(OC)c1Br)C2=O,1.4 µM,1.5 µM,,1.6 µM,1.5 µM,1.9 µM,1.9 µM,,,,90%,,,,1.9 µM
COc1cccc(/C=C2\CCC/C(=C\c3cccc(OC)c3Cl)C2=O)c1Cl,6.9 µM,6.1 µM,,7.2 µM,6.4 µM,5.4 µM,8.1 µM,,,,90%,,,,6.5 µM
COc1cc(/C=C2\CCc3c(O)cccc3C2=O)c(Br)c(OC)c1OC,1.9 µM,1.9 µM,,1.9 µM,2.2 µM,1.9 µM,1.6 µM,,,,93%,,,,1.8 µM
COc1cccc(/C=C2\CC(C(C)C)C/C(=C\c3cccc(OC)c3Cl)C2=O)c1Cl (stereo not drawn),14.5 µM,12.1 µM,,16.7 µM,14.1 µM,13.9 µM,13.4 µM,,,,93%,,,,15.2 µM
COc1cccc(/C=C2\CCc3ccccc3C2=O)c1Cl,27.5 µM,28.2 µM,,27.9 µM,28.5 µM,25.1 µM,25.1 µM,,,,92%,,,,26.7 µM
COc1cccc(/C=C2\CNC/C(=C\c3cccc(OC)c3Cl)C2=O)c1Cl,7.5 µM,7.4 µM,,7.7 µM,7.6 µM,7.3 µM,7.3 µM,,,,94%,,,,8.4 µM
COc1cccc(/C=C2\CN(C)C/C(=C\c3cccc(OC)c3Cl)C2=O)c1Cl,4.2 µM,4.4 µM,,4.6 µM,4.9 µM,4 µM,4 µM,,,,91%,,,,4.4 µM
COc1cc(/C=C2\CCc3ccc(Cl)cc3C2=O)c(Br)c(OC)c1OC,10.2 µM,9.9 µM,,10.4 µM,10.2 µM,10.7 µM,10.7 µM,,,,90%,,,,12.9 µM
COc1cccc2c1CC/C(=C\c1ccc(OC)c(OC)c1Cl)C2=O,6.9 µM,6.7 µM,,6.7 µM,7.2 µM,6.4 µM,6.7 µM,,,,95%,,,,6.4 µM
